The results in this text go back to paper PMC3796545, “Protein-Protein Interactions as a Strategy towards Protein-Specific Drug Design: The Example of Ataxin-1” (PLoS ONE, 2013).

Peptide text beside a SMILES is read from it.

Sequences and labels used below:
T1: ATX1 AXH (residues A567-K689 of human ATX1) (human)
T1 chain: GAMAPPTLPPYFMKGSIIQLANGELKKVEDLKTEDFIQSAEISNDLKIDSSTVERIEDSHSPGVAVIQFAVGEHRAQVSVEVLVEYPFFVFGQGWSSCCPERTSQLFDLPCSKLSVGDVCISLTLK

T2: ATX1 AXH (residues A567–K689 of human ATX1) (Homo sapiens, UniProt P54253)
T2 construct: Recombinant ATX1 AXH (residues A567–K689 of human ATX1); His6-GST (N, cleaved yes); made in house; host or cells: E. coli BL21(DE3)pLysS
T2 sequence (P54253 566-688 limits assumed): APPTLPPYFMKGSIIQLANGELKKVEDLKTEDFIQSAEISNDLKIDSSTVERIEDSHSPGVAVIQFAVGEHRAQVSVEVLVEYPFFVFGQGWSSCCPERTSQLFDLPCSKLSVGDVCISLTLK

B1: L-CICp with F43 mutated to alanine (peptide)
peptide: VFPWHSLVPALAPSQ
B2: L-CICp with V34 mutated to alanine (peptide)
peptide: AFPWHSLVPFLAPSQ
B3: L-CICp with S39 mutated to alanine (peptide)
peptide: VFPWHALVPFLAPSQ
B4: L-CICp with F35 mutated to alanine (peptide)
peptide: VAPWHSLVPFLAPSQ
B5: L-CICp with V41 mutated to alanine (peptide)
peptide: VFPWHSLAPFLAPSQ
B6: L-CICp with P42 mutated to alanine (peptide)
peptide: VFPWHSLVAFLAPSQ
B7: L-CICp with L44 mutated to alanine (peptide)
peptide: VFPWHSLVPFAAPSQ
B8: L-CICp with P36 mutated to alanine (peptide)
peptide: VFAWHSLVPFLAPSQ

The target in one experiment is T1, ATX1 AXH (residues A567-K689 of human …). Briefly: ITC.
Settings: not given
As to B1, binding was put at a Kd of 60 nM.

For the molecule B2, binding was characterised by a dissociation constant (Kd) of 20 nM.

B3: the affinity, expressed as Kd, was 10 nM.

Consider B4, for which the Kd (commonly the equilibrium constant for the complex coming apart) came out at 30 nM.

As for B5, binding was put at a Kd of 70 nM.

With B6, the Kd is 40 nM.

For the molecule B7, binding was put at a Kd of 50 nM.

Molecule B8 yielded a Kd of 40 nM.

In the next experiment the target is T2, ATX1 AXH (residues A567–K689 of human ATX1). In words: ITC binding of CIC peptides to ATX1 AXH. Conditions: 25°C, 50 mM Tris-HCl pH 7, 50 mM NaCl, 2 mM TCEP, 0.041 mM AXH in cell, 0.410 mM peptide in syringe, averages of three measurements, read-out: dissociation constant (Kd). The protocol:
Binding affinities of AXH with CIC ligands were measured at 25°C by a MicroCal Omega VP-ITC (MicroCal Inc., Northampton, USA). Both protein and peptides buffers were 50 mM Tris-HCl pH 7, 50 mM NaCl, 2 mM TCEP. Solutions of 0.041 mM AXH in the cell were titrated by injections of a total of 283 µl of 0.410 mM peptide in the syringe in 21 aliquots. Data were processed with the software MicroCal Origin version 5.0 provided by the manufacturer. All dissociation constants were averages of three measurements.
`CC(C)C[C@H](NC(=O)[C@H](Cc1ccccc1)NC(=O)[C@@H]1CCCN1C(=O)[C@@H](NC(=O)[C@H](CC(C)C)NC(=O)[C@H](CO)NC(=O)[C@H](Cc1c[nH]cn1)NC(=O)[C@H](Cc1c[nH]c2ccccc12)NC(=O)[C@@H]1CCCN1C(=O)[C@H](Cc1ccccc1)NC(=O)[C@@H](N)C(C)C)C(C)C)C(=O)N[C@@H](C)C(=O)N[C@@H](C)C(=O)N[C@@H](CO)C(=O)N[C@@H](CCC(N)=O)C(=O)O` [P46] (H-VFPWHSLVPFLAASQ-OH): the Kd turned out to be 20 nM.

`CC(C)C[C@H](NC(=O)[C@H](Cc1ccccc1)NC(=O)[C@@H]1CCCN1C(=O)[C@@H](NC(=O)[C@H](CC(C)C)NC(=O)[C@H](CO)NC(=O)[C@H](Cc1c[nH]cn1)NC(=O)[C@H](Cc1c[nH]c2ccccc12)NC(=O)[C@@H]1CCCN1C(=O)[C@H](Cc1ccccc1)NC(=O)[C@@H](N)C(C)C)C(C)C)C(=O)NCC(=O)N1CCC[C@H]1C(=O)N[C@@H](CO)C(=O)N[C@@H](CCC(N)=O)C(=O)O` [A45] (H-VFPWHSLVPFLGPSQ-OH): the Kd came to 20 nM.

As for `CC(C)C[C@H](NC(=O)[C@H](CO)NC(=O)[C@H](Cc1c[nH]cn1)NC(=O)[C@H](Cc1c[nH]c2ccccc12)NC(=O)[C@@H]1CCCN1C(=O)[C@H](Cc1ccccc1)NC(=O)[C@@H](N)C(C)C)C(=O)N[C@H](C(=O)N1CCC[C@H]1C(=O)N[C@@H](Cc1ccccc1)C(=O)N[C@@H](C)C(=O)N[C@@H](C)C(=O)N1CCC[C@H]1C(=O)N[C@@H](CO)C(=O)N[C@@H](CCC(N)=O)C(=O)O)C(C)C` [L44] (H-VFPWHSLVPFAAPSQ-OH), the Kd is 50 nM.

On to `CC(C)C[C@H](NC(=O)[C@H](Cc1ccccc1)NC(=O)[C@@H]1CCCN1C(=O)[C@@H](NC(=O)[C@H](CC(C)C)NC(=O)[C@H](CO)NC(=O)[C@H](Cc1c[nH]cn1)NC(=O)[C@H](C)NC(=O)[C@@H]1CCCN1C(=O)[C@H](Cc1ccccc1)NC(=O)[C@@H](N)C(C)C)C(C)C)C(=O)N[C@@H](C)C(=O)N1CCC[C@H]1C(=O)N[C@@H](CO)C(=O)N[C@@H](CCC(N)=O)C(=O)O` [W37] (H-VFPAHSLVPFLAPSQ-OH), for which the Kd was determined as 2600 nM.

Consider `CC(C)C[C@H](NC(=O)[C@H](Cc1ccccc1)NC(=O)[C@@H]1CCCN1C(=O)[C@@H](NC(=O)[C@H](CC(C)C)NC(=O)[C@H](CO)NC(=O)[C@H](Cc1c[nH]cn1)NC(=O)[C@H](Cc1c[nH]c2ccccc12)NC(=O)[C@@H]1CCCN1C(=O)[C@H](Cc1ccccc1)NC(=O)[C@H](C)N)C(C)C)C(=O)N[C@@H](C)C(=O)N1CCC[C@H]1C(=O)N[C@@H](CO)C(=O)N[C@@H](CCC(N)=O)C(=O)O` [V34] (H-AFPWHSLVPFLAPSQ-OH), for which the Kd stood at 20 nM.

Take `CC(C)C[C@H](NC(=O)[C@H](Cc1ccccc1)NC(=O)[C@@H]1CCCN1C(=O)[C@@H](NC(=O)[C@H](C)NC(=O)[C@H](CO)NC(=O)[C@H](Cc1c[nH]cn1)NC(=O)[C@H](Cc1c[nH]c2ccccc12)NC(=O)[C@@H]1CCCN1C(=O)[C@H](Cc1ccccc1)NC(=O)[C@@H](N)C(C)C)C(C)C)C(=O)N[C@@H](C)C(=O)N1CCC[C@H]1C(=O)N[C@@H](CO)C(=O)N[C@@H](CCC(N)=O)C(=O)O` [L40] (H-VFPWHSAVPFLAPSQ-OH): the Kd was 500 nM.

For `CC(C)C[C@H](NC(=O)[C@H](C)NC(=O)[C@@H]1CCCN1C(=O)[C@@H](NC(=O)[C@H](CC(C)C)NC(=O)[C@H](CO)NC(=O)[C@H](Cc1c[nH]cn1)NC(=O)[C@H](Cc1c[nH]c2ccccc12)NC(=O)[C@@H]1CCCN1C(=O)[C@H](Cc1ccccc1)NC(=O)[C@@H](N)C(C)C)C(C)C)C(=O)N[C@@H](C)C(=O)N1CCC[C@H]1C(=O)N[C@@H](CO)C(=O)N[C@@H](CCC(N)=O)C(=O)O` [F43] (H-VFPWHSLVPALAPSQ-OH), the Kd was found to be 60 nM.

With `CC(C)C[C@H](NC(=O)[C@H](Cc1ccccc1)NC(=O)[C@@H]1CCCN1C(=O)[C@@H](NC(=O)[C@H](CC(C)C)NC(=O)[C@H](CO)NC(=O)[C@H](C)NC(=O)[C@H](Cc1c[nH]c2ccccc12)NC(=O)[C@@H]1CCCN1C(=O)[C@H](Cc1ccccc1)NC(=O)[C@@H](N)C(C)C)C(C)C)C(=O)N[C@@H](C)C(=O)N1CCC[C@H]1C(=O)N[C@@H](CO)C(=O)N[C@@H](CCC(N)=O)C(=O)O` [H38] (H-VFPWASLVPFLAPSQ-OH), the Kd came to 50 nM.

For `CC(C)C[C@H](NC(=O)[C@H](Cc1ccccc1)NC(=O)[C@@H]1CCCN1C(=O)[C@@H](NC(=O)[C@H](CC(C)C)NC(=O)[C@H](CO)NC(=O)[C@H](Cc1c[nH]cn1)NC(=O)[C@H](Cc1c[nH]c2ccccc12)NC(=O)[C@@H]1CCCN1C(=O)[C@H](C)NC(=O)[C@@H](N)C(C)C)C(C)C)C(=O)N[C@@H](C)C(=O)N1CCC[C@H]1C(=O)N[C@@H](CO)C(=O)N[C@@H](CCC(N)=O)C(=O)O` [F35] (H-VAPWHSLVPFLAPSQ-OH), the Kd is 30 nM.

Take `CC(C)C[C@H](NC(=O)[C@H](Cc1ccccc1)NC(=O)[C@@H]1CCCN1C(=O)[C@H](C)NC(=O)[C@H](CC(C)C)NC(=O)[C@H](CO)NC(=O)[C@H](Cc1c[nH]cn1)NC(=O)[C@H](Cc1c[nH]c2ccccc12)NC(=O)[C@@H]1CCCN1C(=O)[C@H](Cc1ccccc1)NC(=O)[C@@H](N)C(C)C)C(=O)N[C@@H](C)C(=O)N1CCC[C@H]1C(=O)N[C@@H](CO)C(=O)N[C@@H](CCC(N)=O)C(=O)O` [V41] (H-VFPWHSLAPFLAPSQ-OH): the Kd stood at 70 nM.

On to `CC(C)C[C@H](NC(=O)[C@H](Cc1ccccc1)NC(=O)[C@@H]1CCCN1C(=O)[C@@H](NC(=O)[C@H](CC(C)C)NC(=O)[C@H](CO)NC(=O)[C@H](Cc1c[nH]cn1)NC(=O)[C@H](Cc1c[nH]c2ccccc12)NC(=O)[C@@H]1CCCN1C(=O)[C@H](Cc1ccccc1)NC(=O)[C@@H](N)C(C)C)C(C)C)C(=O)N[C@@H](C)C(=O)N1CCC[C@H]1C(=O)N[C@@H](CO)C(=O)N[C@@H](CCC(N)=O)C(=O)O` [L-CICp] (H-VFPWHSLVPFLAPSQ-OH), for which the Kd is 30 nM.

As to `CC(C)C[C@H](NC(=O)[C@H](Cc1ccccc1)NC(=O)[C@H](C)NC(=O)[C@@H](NC(=O)[C@H](CC(C)C)NC(=O)[C@H](CO)NC(=O)[C@H](Cc1c[nH]cn1)NC(=O)[C@H](Cc1c[nH]c2ccccc12)NC(=O)[C@@H]1CCCN1C(=O)[C@H](Cc1ccccc1)NC(=O)[C@@H](N)C(C)C)C(C)C)C(=O)N[C@@H](C)C(=O)N1CCC[C@H]1C(=O)N[C@@H](CO)C(=O)N[C@@H](CCC(N)=O)C(=O)O` [P42] (H-VFPWHSLVAFLAPSQ-OH), the Kd was 40 nM.

With `CC(C)C[C@H](NC(=O)[C@H](C)NC(=O)[C@H](Cc1c[nH]cn1)NC(=O)[C@H](Cc1c[nH]c2ccccc12)NC(=O)[C@@H]1CCCN1C(=O)[C@H](Cc1ccccc1)NC(=O)[C@@H](N)C(C)C)C(=O)N[C@H](C(=O)N1CCC[C@H]1C(=O)N[C@@H](Cc1ccccc1)C(=O)N[C@@H](CC(C)C)C(=O)N[C@@H](C)C(=O)N1CCC[C@H]1C(=O)N[C@@H](CO)C(=O)N[C@@H](CCC(N)=O)C(=O)O)C(C)C` [S39] (H-VFPWHALVPFLAPSQ-OH), the Kd was determined as 10 nM.

Regarding `CC(C)C[C@H](NC(=O)[C@H](Cc1ccccc1)NC(=O)[C@@H]1CCCN1C(=O)[C@@H](NC(=O)[C@H](CC(C)C)NC(=O)[C@H](CO)NC(=O)[C@H](Cc1c[nH]cn1)NC(=O)[C@H](Cc1c[nH]c2ccccc12)NC(=O)[C@H](C)NC(=O)[C@H](Cc1ccccc1)NC(=O)[C@@H](N)C(C)C)C(C)C)C(=O)N[C@@H](C)C(=O)N1CCC[C@H]1C(=O)N[C@@H](CO)C(=O)N[C@@H](CCC(N)=O)C(=O)O` [P36] (H-VFAWHSLVPFLAPSQ-OH), the Kd came out at 40 nM.

Regarding `CC(C)C[C@H](NC(=O)[C@H](Cc1ccccc1)NC(=O)[C@@H]1CCCN1C(=O)[C@@H](NC(=O)[C@H](CC(C)C)NC(=O)[C@H](CO)NC(=O)[C@H](Cc1c[nH]cn1)NC(=O)[C@H](Cc1c[nH]c2ccccc12)NC(=O)[C@@H]1CCCN1)C(C)C)C(=O)N[C@@H](C)C(=O)N1CCC[C@H]1C(=O)N[C@@H](CO)C(=O)N[C@@H](CCC(N)=O)C(=O)O` [CICp] (H-PWHSLVPFLAPSQ-OH), the equilibrium dissociation constant (Kd) turned out to be 8000 nM.

The same experiment, now with this note: 25°C, 50 mM Tris-HCl pH 7, 50 mM NaCl, 2 mM TCEP, averages of three measurements, read-out: dissociation constant (Kd).
With `CC(C)C[C@H](NC(=O)[C@H](Cc1ccccc1)NC(=O)[C@@H]1CCCN1C(=O)[C@@H](NC(=O)[C@H](CC(C)C)NC(=O)[C@H](CO)NC(=O)[C@H](Cc1c[nH]cn1)NC(=O)[C@H](Cc1c[nH]c2ccccc12)NC(=O)[C@@H]1CCCN1C(=O)[C@H](Cc1ccccc1)NC(=O)[C@@H](N)C(C)C)C(C)C)C(=O)N[C@@H](C)C(=O)N1CCC[C@H]1C(=O)N[C@@H](CO)C(=O)N[C@@H](CCC(N)=O)C(=O)O` [L-CICp] (H-VFPWHSLVPFLAPSQ-OH), the Kd was approximately 33 nM.
